Reference: patent publication US9598387B2 (Southern Research Institute, priority 2012, dated 2017)

What was measured:
[1] = molecular target: human D2-long dopamine receptor (Homo sapiens (Human), UniProt P14416); test: Radioligand binding (125I-IABN competition), D2; settings: HEK cell membranes expressing human D2-long
Experimental: (§1) The affinities of the target compounds were determined using radioligand binding experiments. […] Competition curves were modeled for a single site. Data from competition dose-response curves were analyzed using Tablecurve program (Jandel). IC50 values were converted to equilibrium dissociation constants (Ki values) using the Cheng and Prusoff correction.

[2] = molecular target: human D3 dopamine receptor (Homo sapiens (Human), UniProt P35462); test: Radioligand binding (125I-IABN competition), D3; settings: for Ki: 125I-IABN competition, HEK cell membranes expressing human D3; for D2/D3 (D3 selectivity ratio, D2 Ki/D3 Ki): calculated D2 Ki/D3 Ki
Sequence of human D3 dopamine receptor (P35462 whole entry): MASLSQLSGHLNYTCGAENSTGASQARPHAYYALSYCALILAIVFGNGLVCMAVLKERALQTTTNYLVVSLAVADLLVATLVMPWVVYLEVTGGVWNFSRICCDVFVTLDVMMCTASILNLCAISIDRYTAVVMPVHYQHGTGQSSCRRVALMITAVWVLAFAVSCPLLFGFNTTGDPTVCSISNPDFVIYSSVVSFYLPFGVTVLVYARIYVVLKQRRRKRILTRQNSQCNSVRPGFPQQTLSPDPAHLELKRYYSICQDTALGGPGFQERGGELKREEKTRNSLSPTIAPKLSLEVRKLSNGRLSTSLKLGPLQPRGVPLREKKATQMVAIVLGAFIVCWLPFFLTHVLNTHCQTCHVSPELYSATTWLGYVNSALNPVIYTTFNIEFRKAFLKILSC
Experimental: as §1

Sequence of human D2-long dopamine receptor (P14416 whole entry): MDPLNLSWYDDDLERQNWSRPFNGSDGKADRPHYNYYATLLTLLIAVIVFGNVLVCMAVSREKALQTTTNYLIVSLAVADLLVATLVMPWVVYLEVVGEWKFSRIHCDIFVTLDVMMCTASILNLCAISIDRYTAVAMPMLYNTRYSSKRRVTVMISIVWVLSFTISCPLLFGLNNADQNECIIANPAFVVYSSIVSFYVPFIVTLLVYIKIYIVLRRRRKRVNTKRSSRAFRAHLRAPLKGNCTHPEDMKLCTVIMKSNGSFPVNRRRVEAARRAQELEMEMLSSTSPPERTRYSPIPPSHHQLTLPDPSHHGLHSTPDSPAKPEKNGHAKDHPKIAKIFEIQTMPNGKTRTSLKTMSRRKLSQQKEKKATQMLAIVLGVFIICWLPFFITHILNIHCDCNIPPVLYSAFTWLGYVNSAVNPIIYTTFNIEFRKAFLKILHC

| Ki [1] [nM] | Ki [2] [nM] | D2/D3 (D3 selectivity ratio, D2 Ki/D3 Ki) [2] | SMILES |
| --- | --- | --- | --- |
| 582 ± 127 | 19.3 ± 1.6 | 30 | CC(C)(C)c1nc(N2CCN(CCCCNC(=O)N3CCN(c4cccc(Cl)c4)CC3)CC2)cc(C(F)(F)F)n1 [Compound 15, N-(4-(4-(2-(tert-Butyl)-6-(trifluoromethyl)pyrimidin-4-yl)piperazin-1-yl)butyl)-4-(3-chlorophenyl)piperazine-1-carboxamide] |
| 809 ± 194 | – | – | CC(C)(C)c1nc(N2CCN(CCCCNC(=O)C3CCN(c4ccccc4)CC3)CC2)cc(C(F)(F)F)n1 [Compound 108, N-(4-(4-(2-(tert-Butyl)-6-(trifluoromethyl)pyrimidin-4-yl)piperazin-1-yl)butyl)-1-phenylpiperidine-4-carboxamide] |
| 366 | – | – | Cc1cc(N2CCN(CCCCNC(=O)c3cn4ccccc4n3)CC2)nc(C(C)(C)C)n1 [Compound 111, N-(4-(4-(2-(tert-Butyl)-6-methylpyrimidin-4-yl)piperazin-1-yl)butyl)imidazo[1,2-a]pyridine-2-carboxamide] |
| 191 | – | – | CC(C)(C)c1nc(C2CC2)cc(N2CCN(CCCCNC(=O)c3cn4ccccc4n3)CC2)n1 [Compound 112, N-(4-(4-(2-(tert-Butyl)-6-cyclopropylpyrimidin-4-yl)piperazin-1-yl)butyl)imidazo[1,2-a]pyridine-2-carboxamide] |
| 1880 ± 488 | – | – | O=C(NCCCCN1CCN(c2ccnc3cc(Cl)ccc23)CC1)c1cn2ccccc2n1 [Compound 118, N-(4-(4-(7-Chloroquinolin-4-yl)piperazin-1-yl)butyl)imidazo[1,2-a]pyridine-2-carboxamide] |
| 4600 ± 785 | – | – | Cc1nc(N2CCN(CCCCNC(=O)c3cn4ccccc4n3)CC2)cc(C(C)(C)C)n1 [Compound 125, N-(4-(4-(6-(tert-Butyl)-2-methylpyrimidin-4-yl)piperazin-1-yl)butyl)imidazo[1,2-a]pyridine-2-carboxamide] |
| 13600 ± 6260 | – | – | O=C(NCCCCN1CCN(c2cc(C(F)(F)F)nc3ccccc23)CC1)c1cn2ccccc2n1 [Compound 130, N-(4-(4-(2-(Trifluoromethyl)quinolin-4-yl)piperazin-1-yl)butyl)imidazo[1,2-a]pyridine-2-carboxamide] |

Continued, compound first:

| SMILES | Ki [1] [nM] | Ki [2] [nM] | D2/D3 (D3 selectivity ratio, D2 Ki/D3 Ki) [2] |
| --- | --- | --- | --- |
| O=C(NCCCCN1CCN(c2cccc(C(F)(F)F)c2)CC1)N1CCN(c2ccccc2)CC1 [Compound 2, 4-Phenyl-N-(4-(4-(3-(trifluoromethyl)phenyl)piperazin-1-yl)butyl)piperazine-1-carboxamide] | 303 ± 10.4 | 14.2 ± 2.9 | 21 |
| CC(C)(C)c1nc(C2CC2)cc(N2CCN(CCCCNC(=O)N3CCN(c4ccccc4)CC3)CC2)n1 [Compound 9, N-(4-(4-(2-(tert-Butyl)-6-cyclopropylpyrimidin-4-yl)piperazin-1-yl)butyl)-4-phenylpiperazine-1-carboxamide] | 515 ± 59.6 | 15.1 ± 2.8 | 34 |
| CC(C)(C)c1cc(N2CCN(CCCCNC(=O)N3CCN(c4ccccc4)CC3)CC2)nc(C(C)(C)C)n1 [Compound 10, N-(4-(4-(2,6-Di-tert-butylpyrimidin-4-yl)piperazin-1-yl)butyl)-4-phenylpiperazine-1-carboxamide] | 337 ± 67.8 | 15.1 ± 4.2 | 22 |
| O=C(NCCCCN1CCN(c2ccnc3cc(Cl)ccc23)CC1)N1CCN(c2ccccc2)CC1 [Compound 12, N-(4-(4-(7-Chloroquinolin-4-yl)piperazin-1-yl)butyl)-4-phenylpiperazine-1-carboxamide] | 933 ± 91 | 26.9 ± 4.9 | 35 |
| CC(C)(C)c1nc(N2CCN(CCCCNC(=O)N3CCN(c4ccccc4Cl)CC3)CC2)cc(C(F)(F)F)n1 [Compound 14, N-(4-(4-(2-(tert-Butyl)-6-(trifluoromethyl)pyrimidin-4-yl)piperazin-1-yl)butyl)-4-(2-chlorophenyl)piperazine-1-carboxamide] | 738 ± 88.8 | 21.4 ± 3.4 | 34 |
